# Experimental data reported in patent publication US9260504B2, “N- and C-terminal substituted antagonistic analogs of GH-RH” (University of Miami, priority 2008, dated 2016).
# Tests used:
# Type in all cases: in vivo
# [1] = test system: NCI-N87 human gastric cancer; assay: NCI-N87 human gastric cancer xenografts in nude mice; conditions: 10 μg/day s.c.
# Method: NCI-N87 cancers were transplanted s.c. into both flank areas of 30 female nude mice. The mice were randomly assigned into 4 experimental groups with 6 to 9 animals in each group and received single daily injections for 77 days as follows: 1. Control (vehicle solution); 2. JMR-132 (10 μg/day s.c.); 3. Peptide 1109 (10 μg/day s.c.); 4. Peptide 11479 (10 μg/day s.c.). Tumor volumes were measured once a week. The experiment was ended on day 77 by sacrificing the mice under Isoflurane anesthesia. Resulting tumors were cleaned, weighed, and snap-frozen until further analyses. Statistical analyses of the measurement results were done by two-tailed t-test, p<0.05 being considered significant. Data are presented as the means±S.E.
# [2] = test system: PC-3 human hormone-independent prostate cancer; assay: PC-3 human prostate cancer xenografts in nude mice, Experiment 1; conditions: 10 μg/day s.c., daily for 35 days; means±S.E.
# Method: Male nude mice were implanted s.c. with 3 mm^3 pieces of PC-3 human hormone-independent prostate cancer tissue on both flanks. When tumors reached a volume of approx. 50 mm^3, the mice were divided into 4 experimental groups with 8 to 10 animals in each group and received single daily injections for 35 days as follows: 1. Control (vehicle solution); 2. JMR-132 (10 μg/day s.c.); 3. Peptide 1109 (10 μg/day s.c.); 4. Peptide 11111 (10 μg/day s.c.); Tumor volumes were measured once a week. The experiment was ended on day 35 by sacrificing the mice under Isoflurane anesthesia. Resulting tumors were cleaned, weighed, and snap-frozen until further analyses. Statistical analyses of the measurement results were done by two-tailed t-test, p<0.05 being considered significant. Data are presented as the means±S.E.
# [3] = test system: PC-3 human hormone-independent prostate cancer; assay: PC-3 human prostate cancer xenografts in nude mice, Experiment 4; conditions: 10 μg/day s.c.
# Method: Male nude mice were implanted s.c. with 3 mm^3 pieces of PC-3 human hormone-independent prostate cancer tissue on both flanks. When tumors reached a volume of approximately 50 mm^3, the mice were divided into 12 experimental groups with 8 to 10 animals in each group and received single daily injections for 28 days as follows: 1. Control (vehicle solution); 2. JMR-132 (10 μg/day s.c.); 3. Peptide 11113 (2 μg/day s.c.); 4. Peptide 11119 (2 μg/day s.c.); 5. Peptide 11209 (2 μg/day s.c.); 6. Peptide 11313 (2 μg/day s.c.); 7. Peptide 11408 (2 μg/day s.c.); 8. Peptide 11435 (2 μg/day s.c.); 9. Peptide 11457 (2 μg/day s.c.); 10. Peptide 11459 (2 μg/day s.c.); 11. Peptide 11469 (2 μg/day s.c.); 12. Peptide 11491 (2 μg/day s.c.).
# Tumor volumes were measured once a week. The experiment was ended on day 28 by sacrificing the mice under Isoflurane anesthesia. Resulting tumors were cleaned, weighed, and snap-frozen until further analyses. Statistical analyses of the measurement results were done by two-tailed t-test, p<0.05 being considered significant.
# All experimental details of Experiment 4 are the same as for Experiment 3, with the following difference. When tumors reached a volume of approximately 50 mm^3, the mice were divided into 11 experimental groups with 8 to 10 animals in each group and received single daily injections for 46 days as follows: 1. Control (vehicle solution); 2. JMR-132 (10 μg/day s.c.); 3. Peptide 11123 (2 μg/day s.c.); 4. Peptide 11125 (2 μg/day s.c.); 5. Peptide 11213 (2 μg/day s.c.); 6. Peptide 11433 (2 μg/day s.c.); 7. Peptide 11473 (2 μg/day s.c.); 8. Peptide 11485 (2 μg/day s.c.); 9. Peptide 11497 (2 μg/day s.c.); 10. Peptide 11499 (2 μg/day s.c.); 11. Peptide 11521 (2 μg/day s.c.). Tumor volumes were measured once a week. The experiment was ended on day 46 by sacrificing the mice under Isoflurane anesthesia. Resulting tumors were cleaned, weighed, and snap-frozen until further analyses. Statistical analyses of the measurement results were done by two-tailed t-test, p<0.05 being considered significant.
# [4] = test system: SK-Hep-1 human hepatocellular cancer; assay: SK-Hep-1 human hepatocellular cancer xenografts in nude mice; conditions: 10 μg/day s.c.
# Method: SK-Hep-1 cancers were transplanted s.c. into both flank areas of 66 female nude mice, and allowed to grow for 47 days before starting the treatment with GH-RH antagonists. The mice were randomly assigned into 4 experimental groups with 8 animals in each group and received single daily injections for 135 days as follows: 1. Control (vehicle solution); 2. JMR-132 (10 μg/day s.c.); 3. Peptide 1109 (5 μg/day s.c.); 4. Peptide 1109 (10 μg/day s.c.). Tumor volumes were measured once a week. The experiment was ended on day 135 by sacrificing the mice under Isoflurane anesthesia. Resulting tumors were cleaned, weighed, and snap-frozen until further analyses. Statistical analyses of the measurement results were done by two-tailed t-test, p<0.05 being considered significant. Data are presented as the means±S.E.
substance,measurement,setting,value
"[PhAc^0-Tyr^1, D-Arg^2, Cpa^6, Ala^8, Har^9, Tyr(Me)^10, His^11, Abu^15, His^20, Nle^27, D-Arg^28, Har^29]hGH-RH(1-29)NH2 [JMR-132, reference compound]",Effect on the growth of NCI-N87 cancers,[1]; 77 days,not effective
same,Number of regressing tumors,[1]; 77 days,2
same,Tumor growth after 77 days (%),"[1]; 77 days, means±S.E.",409 ± 78%
same,Tumor weights,"[1]; day 77, means±S.E.",407 ± 175 mg
same,Tumor doubling time,[1]; calculated without the regressing tumors,40.8 ± 5.9 days
same,Tumor growth after 5 weeks (%),[2],2820 ± 498%
same,Tumor growth after 28 days (%),[3],1004%
same,Tumor growth after 46 days (%),[3],1848%
same,Inhibition (%),[3]; after 28 days,26.62%
same,Inhibition (%),[3]; after 46 days,44.52%
same,Tumors with total regression,[4]; 135 days,2
same,Tumor volume (mm^3) on day 135,"[4]; 135 days, means±S.E.",615 ± 372 mm^3
same,Tumor weights (mg),[4]; tumors removed at autopsy,1006 ± 569 (7) mg
